Like-named read-outs stand apart in the source and are kept apart here.

Broadly, the EC50 is the midpoint of the concentration-response curve. In general, CC50 refers to the concentration at which the toxic effect on the cells reaches its halfway point. Read a high CC50 as lower toxicity to the cells.

One data set deals with HBV. Put plainly: Anti-viral assay in HepG2.2.15 cells: HBV inhibitory activity (HBV DNA in culture medium by q-PCR). Format: cell-based. The conditions noted are these: Hepatitis B virus, HepG2.2.15, 144 h. The method in brief:
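HBV DNA released into the medium was measured by q-PCR after 6-day compound exposure of HepG2.2.15 cells (40,000/well, 2% FBS, one mid-course medium change). Eight 3-fold dilutions, highest 10 uM; EC50 derived by curve fitting.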

Data set [1] is described as follows: Cytotoxicity determination in HepG2.2.15 cells (CCK-8). The class given is cell-based. The conditions noted are these: human, 6 days treatment, CCK-8, highest concentration 100 uM. The procedure, abridged:
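CC50 derived from CCK-8 absorbance (450 nm, 630 nm reference) after 2.5 h incubation at 37 °C. Before that, HepG2.2.15 cells (5,000/well, 2% FBS) received an 8-point, 3-fold compound series topping at 100 uM for 6 days, with one mid-treatment medium change.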

Setting [2] is: HepG2.2.15 cells, 6 days treatment, HBV DNA in culture medium by q-PCR, highest concentration 10 uM, read-out: EC50.

For `COC(=O)C1=C(C2CCN(c3ncc(C(=O)O)cn3)CC2)NC(c2nccs2)=NC1c1ccc(F)cc1Cl` (single isomer, unassigned) [II-17-B, 2-(4-(6-(2-chloro-4-fluorophenyl)-5-(methoxycarbonyl)-2-(thiazol-2-yl)-3,6-dihydropyrimidin-4-yl)piperidin-1-yl)pyrimidine-5-carboxylic Acid], the concentration giving a half-maximal response (EC50) in the data set with HBV (setting [2]) came out at 14 nM. The compound also yielded a CC50 at 6 days in data set [1] greater than 100 µM.

As to `COC(=O)C1=C(C2CCN(c3ncc(C(=O)O)s3)CC2)NC(c2nccs2)=NC1c1ccc(F)cc1Br` (single isomer, unassigned) [II-84-B, 2-(4-(6-(2-Bromo-4-fluorophenyl)-5-(methoxycarbonyl)-2-(thiazol-2-yl)-3,6-dihydropyrimidin-4-yl)piperidin-1-yl)thiazole-5-carboxylic Acid], in the data set on HBV (setting [2]), the EC50 is 6.4 nM. In data set [1], this compound returned a cytotoxic concentration (CC50) at 6 days of 14.9 µM.

Consider `CCOC(=O)C1=C(C2CCN(c3nc(C(=O)OCC)co3)C2)NC(c2nccs2)=NC1c1ccc(F)c(F)c1Cl` (single isomer, unassigned) [XI-85-M, Ethyl 2-(3-(6-(2-chloro-3,4-difluorophenyl)-5-(ethoxycarbonyl)-2-(thiazol-2-yl)-3,6-dihydropyrimidin-4-yl)pyrrolidin-1-yl)oxazole-4-carboxylate], for which, in the data set on HBV (setting [2]), the concentration for a half-maximal effect (EC50) was 770 nM. The compound also returned a CC50 at 6 days in data set [1] of 11.6 µM.

`CCOC(=O)C1=C(C2CCN(c3ncc(N(C)C)c(C(=O)O)n3)CC2)NC(c2nccs2)=NC1c1ccc(F)cc1Br` (single isomer, unassigned) [II-100-B, 2-(4-(6-(2-bromo-4-fluorophenyl)-5-(ethoxycarbonyl)-2-(thiazol-2-yl)-3,6-dihydropyrimidin-4-yl)piperidin-1-yl)-5-(dimethylamino)pyrimidine-4-carboxylic Acid]: the EC50 in the data set on HBV (setting [2]) turned out to be 22 nM. Further, the CC50 at 6 days in data set [1] turned out to be 24.5 µM.

Turning to `CCOC(=O)C1=C([C@H]2CC[C@H](c3cnn(CCC(=O)O)c3)CC2)NC(c2nccs2)=NC1c1ccc(F)c(F)c1Cl` (single isomer, unassigned) [Compound I-32-B, 3-(4-((trans)-4-(6-(2-Chloro-3,4-difluorophenyl)-5-(ethoxycarbonyl)-2-(thiazol-2-yl)-3,6-dihydropyrimidin-4-yl)cyclohexyl)-1H-pyrazol-1-yl)propanoic Acid], the EC50 in the data set with HBV (setting [2]) is less than 4.6 nM. The compound further gave a 50% cytotoxic concentration (CC50) at 6 days in data set [1] of 5.81 µM.

For the compound `CCOC(=O)C1=C(C2CCN(c3ncc(Cl)c(C(=O)O)n3)CC2)NC(c2nccs2)=NC1c1ccc(F)c(F)c1Cl` (single isomer, unassigned) [II-61-B, 5-Chloro-2-(4-(6-(2-chloro-3,4-difluorophenyl)-5-(ethoxycarbonyl)-2-(thiazol-2-yl)-3,6-dihydropyrimidin-4-yl)piperidin-1-yl)pyrimidine-4-carboxylic Acid], in the data set on HBV (setting [2]), the half-maximal effective concentration (EC50) was 9.1 nM. In data set [1], this compound gave a half-maximal cytotoxic concentration (CC50) at 6 days of 6.68 µM.

Take `COC(=O)C1=C([C@H]2CC[C@H](c3nc(CC(=O)O)c(C)o3)CC2)NC(c2nccs2)=NC1c1ccc(F)cc1Cl` (single isomer, unassigned) [Compound I-48-B, (trans)-2-(2-(4-(6-(2-Chloro-4-fluorophenyl)-5-(methoxycarbonyl)-2-(thiazol-2-yl)-3,6-dihydropyrimidin-4-yl)cyclohexyl)-5-methyloxazol-4-yl)acetic Acid]: in the data set on HBV (setting [2]), the 50% effective concentration (EC50) came out at 22 nM. In data set [1], this compound registered a 50% cytotoxic concentration (CC50) at 6 days of 23 µM.

As for `CCOC(=O)C1=C([C@H]2CC[C@H](c3nc(C(=O)O)no3)CC2)NC(c2nccs2)=NC1c1ccc(F)c(F)c1Cl` (stereo partly drawn) [Compound I-45, (trans)-5-(-4-(6-(2-Chloro-3,4-difluorophenyl)-5-(ethoxycarbonyl)-2-(thiazol-2-yl)-3,6-dihydropyrimidin-4-yl)cyclohexyl)-1,2,4-oxadiazole-3-carboxylic Acid], in the data set with HBV (setting [2]), the 50% effective concentration (EC50) stood at 71 nM. In data set [1], this compound registered a half-maximal cytotoxic concentration (CC50) at 6 days of 16.8 µM.

For the compound `CCOC(=O)C1=C(C2CCN(c3ncc(C(=O)O)o3)CC2)NC(c2nccs2)=NC1c1ccc(F)c(F)c1Cl` (single isomer, unassigned) [II-50-B, 2-(4-(6-(2-Chloro-3,4-difluorophenyl)-5-(ethoxycarbonyl)-2-(thiazol-2-yl)-3,6-dihydropyrimidin-4-yl)piperidin-1-yl)oxazole-5-carboxylic Acid], the 50% effective concentration (EC50) with HBV (setting [2]) was 26 nM. Further, the midpoint of cytotoxicity in data set [1], the CC50 at 6 days, lay at 19 µM.

In the case of `CCOC(=O)C1=C([C@H]2CC[C@H](c3nc(CCC(=O)O)co3)CC2)NC(c2nccs2)=NC1c1ccc(F)c(F)c1Cl` (single isomer, unassigned) [Compound I-24-A, (trans)-3-(2-(4-(6-(2-Chloro-3,4-difluorophenyl)-5-(ethoxycarbonyl)-2-(thiazol-2-yl)-3,6-dihydropyrimidin-4-yl)cyclohexyl)oxazol-4-yl)propanoic Acid], the EC50 in the data set on HBV (setting [2]) was less than 4.6 nM. In data set [1], this compound came in with a CC50 at 6 days of 6.79 µM.

For the compound `CCOC(=O)C1=C(C2CCN(c3ccc(C(=O)O)cn3)CC2)NC(c2nccs2)=NC1c1ccc(F)c(F)c1Cl` (single isomer, unassigned) [II-43-B, 6-(4-(6-(2-Chloro-3,4-difluorophenyl)-5-(ethoxycarbonyl)-2-(thiazol-2-yl)-3,6-dihydropyrimidin-4-yl)piperidin-1-yl)nicotinic Acid], the EC50 in the data set with HBV (setting [2]) came to 16 nM. In addition, the midpoint of cytotoxicity in data set [1], the CC50 at 6 days, lay at 11.4 µM.

As for `COC(=O)C1=C(C2CCN(c3ncc(C)c(C(=O)O)n3)CC2)NC(c2nccs2)=NC1c1cccc(F)c1Cl` (single isomer, unassigned) [II-8-B, 2-(4-(6-(2-Chloro-3-fluorophenyl)-5-(methoxycarbonyl)-2-(thiazol-2-yl)-3,6-dihydropyrimidin-4-yl)piperidin-1-yl)-5-methylpyrimidine-4-carboxylic Acid], the EC50 in the data set on HBV (setting [2]) came out at 8.1 nM. In addition, in data set [1], the CC50 at 6 days was 19 µM.

Take `CCOC(=O)C1=C(C2CCN(c3nc(C)cc(C(=O)O)n3)CC2)NC(c2nccs2)=NC1c1ccc(F)c(F)c1Cl` (single isomer, unassigned) [II-58-B, 2-(4-(6-(2-Chloro-3,4-difluorophenyl)-5-(ethoxycarbonyl)-2-(thiazol-2-yl)-3,6-dihydropyrimidin-4-yl)piperidin-1-yl)-6-methylpyrimidine-4-carboxylic Acid]: the concentration for a half-maximal effect (EC50) in the data set on HBV (setting [2]) stood at 37 nM. The same compound came in with a CC50 at 6 days in data set [1] of 4.8 µM.

The compound `CCOC(=O)C1=C(C2CCN(c3nc(C)c(C(=O)O)o3)CC2)NC(c2nccs2)=NC1c1ccc(F)c(F)c1Cl` (single isomer, unassigned) [II-64-B, Lithium 2-(4-(6-(2-chloro-3,4-difluorophenyl)-5-(ethoxycarbonyl)-2-(thiazol-2-yl)-3,6-dihydropyrimidin-4-yl)piperidin-1-yl)-4-methyloxazole-5-carboxylate] showed a concentration for a half-maximal effect (EC50) in the data set on HBV of 75 nM. Besides, the midpoint of cytotoxicity in data set [1], the CC50 at 6 days, lay at 6.84 µM.

`CCOC(=O)C1=C([C@H]2CC[C@H](c3nc(CCC(=O)O)co3)CC2)NC(c2nccs2)=NC1c1ccc(F)c(F)c1Cl` (relative stereo) [Compound I-24, (trans)-3-(2-(4-(6-(2-Chloro-3,4-difluorophenyl)-5-(ethoxycarbonyl)-2-(thiazol-2-yl)-3,6-dihydropyrimidin-4-yl)cyclohexyl)oxazol-4-yl)propanoic acid]: in the data set on HBV (setting [2]), the EC50 was 12 nM. The same compound returned a half-maximal cytotoxic concentration (CC50) at 6 days in data set [1] of 7.55 µM.

As for `COC(=O)C1=C(C2CCN(c3nc(C(=O)O)co3)CC2)NC(c2nccs2)=NC1c1ccc(F)c(F)c1Cl` (single isomer, unassigned) [II-33-B, 2-(4-(6-(2-Chloro-3,4-difluorophenyl)-5-(methoxycarbonyl)-2-(thiazol-2-yl)-3,6-dihydropyrimidin-4-yl)piperidin-1-yl)oxazole-4-carboxylic Acid], in the data set on HBV (setting [2]), the EC50 was 45 nM. Besides, half-maximal cytotoxicity in data set [1] (CC50 at 6 days) was put at 18.6 µM.

As to `COC(=O)C1=C([C@H]2CC[C@H](c3nc(CC(=O)O)co3)CC2)NC(c2nccs2)=NC1c1ccc(F)cc1Br` (single isomer, unassigned) [Compound I-18-A, (trans)-2-(2-(4-(6-(2-Bromo-4-fluorophenyl)-5-(methoxycarbonyl)-2-(thiazol-2-yl)-3,6-dihydropyrimidin-4-yl)cyclohexyl)oxazol-4-yl)acetic Acid], the EC50 in the data set on HBV (setting [2]) was determined as 7 nM. The CC50 at 6 days in data set [1] was 15.3 µM.

Regarding `CCOC(=O)C1=C(C2CCN(c3ncc(C(=O)O)cc3F)CC2)NC(c2nccs2)=NC1c1ccc(F)c(F)c1Cl` (single isomer, unassigned) [II-45-B, 6-(4-(6-(2-Chloro-3,4-difluorophenyl)-5-(ethoxycarbonyl)-2-(thiazol-2-yl)-3,6-dihydropyrimidin-4-yl)piperidin-1-yl)-5-fluoronicotinic Acid], the half-maximal effective concentration (EC50) in the data set with HBV (setting [2]) is 8.7 nM. In data set [1], this compound displayed a CC50 at 6 days of 4.43 µM.

As to `CCOC(=O)C1=C(C2CCN(c3nc(C(=O)O)co3)CC2)NC(c2nccs2)=NC1c1ccc(F)c(F)c1Cl` (single isomer, unassigned) [II-70-B, 2-(4-(6-(2-Chloro-3,4-difluorophenyl)-5-(ethoxycarbonyl)-2-(thiazol-2-yl)-3,6-dihydropyrimidin-4-yl)piperidin-1-yl)oxazole-4-carboxylic Acid], the EC50 in the data set on HBV (setting [2]) is 10 nM. In addition, half-maximal cytotoxicity in data set [1] (CC50 at 6 days) was put at 11.8 µM.

In the case of `COC(=O)C1=C([C@H]2CC[C@H](c3nc(C(=O)O)co3)CC2)NC(c2nccs2)=NC1c1ccc(F)cc1Cl` (single isomer, unassigned) [Compound I-4-B, (trans)-2-(4-(6-(2-Chloro-4-fluorophenyl)-5-(methoxycarbonyl)-2-(thiazol-2-yl)-3,6-dihydropyrimidin-4-yl)cyclohexyl)oxazole-4-carboxylic Acid], the concentration for a half-maximal effect (EC50) with HBV (setting [2]) came to 11 nM. For the same compound, the CC50 at 6 days in data set [1] turned out to be 16.4 µM.
